Legend:
[1] = biological target: T1, Alpha-1D adrenergic receptor (Homo sapiens, UniProt P25100); format: cell membranes, HEK293, Membrane; further: in other assays of this panel Not Active means under 50% inhibition at 10 µM
T1 sequence (P25100 whole entry): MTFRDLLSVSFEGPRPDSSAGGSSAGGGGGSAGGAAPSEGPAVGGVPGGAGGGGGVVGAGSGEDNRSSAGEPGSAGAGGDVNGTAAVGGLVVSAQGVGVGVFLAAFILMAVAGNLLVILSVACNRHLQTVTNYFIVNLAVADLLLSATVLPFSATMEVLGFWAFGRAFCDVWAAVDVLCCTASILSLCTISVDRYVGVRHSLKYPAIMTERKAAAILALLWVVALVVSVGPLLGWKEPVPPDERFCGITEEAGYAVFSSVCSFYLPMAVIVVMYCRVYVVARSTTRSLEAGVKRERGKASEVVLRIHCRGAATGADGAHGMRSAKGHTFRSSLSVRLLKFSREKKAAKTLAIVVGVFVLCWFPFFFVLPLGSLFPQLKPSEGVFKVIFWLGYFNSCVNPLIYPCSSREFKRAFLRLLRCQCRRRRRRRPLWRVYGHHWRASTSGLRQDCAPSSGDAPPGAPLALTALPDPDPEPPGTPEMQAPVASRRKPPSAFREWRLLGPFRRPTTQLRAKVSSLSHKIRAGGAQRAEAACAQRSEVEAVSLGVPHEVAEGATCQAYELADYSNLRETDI

[2] = DRUGMATRIX: beta-Lactamase enzyme inhibition (substrate: Nitrocefin); set-up: species or system Bacillus cereus; details: Not Active = under 50% inhibition at 10 µM
[3] = DRUGMATRIX: Calcium Channel Type L, Benzothiazepine radioligand binding (ligand: [3H] Diltiazem); format: cell membranes, Rattus norvegicus, Wistar, Brain, Membrane; details: Not Active = under 50% inhibition at 10 µM
[4] = biological target: T2, Cholecystokinin receptor type A (Homo sapiens, UniProt P32238); format: cell membranes, Membrane; details: 1321-n1; further: in other assays of this panel Not Active means under 50% inhibition at 10 µM
T2 sequence (P32238 whole entry): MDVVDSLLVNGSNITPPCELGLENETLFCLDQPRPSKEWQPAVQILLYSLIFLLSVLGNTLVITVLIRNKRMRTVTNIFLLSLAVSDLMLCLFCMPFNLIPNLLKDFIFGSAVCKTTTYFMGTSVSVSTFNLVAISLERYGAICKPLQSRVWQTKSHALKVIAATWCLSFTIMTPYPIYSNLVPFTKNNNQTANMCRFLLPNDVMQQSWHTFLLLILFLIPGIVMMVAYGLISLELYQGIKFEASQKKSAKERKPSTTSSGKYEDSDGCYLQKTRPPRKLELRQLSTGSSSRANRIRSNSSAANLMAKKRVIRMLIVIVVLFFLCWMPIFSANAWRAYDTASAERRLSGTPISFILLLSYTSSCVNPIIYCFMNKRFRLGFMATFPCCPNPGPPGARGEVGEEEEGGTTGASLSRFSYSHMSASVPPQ

[5] = biological target: T3, Muscarinic acetylcholine receptor M4 (Homo sapiens, UniProt P08173); format: cell membranes, CHO-K1, Membrane; details: cho-k1; further: in other assays of this panel Not Active means under 50% inhibition at 10 µM
T3 sequence (P08173 whole entry): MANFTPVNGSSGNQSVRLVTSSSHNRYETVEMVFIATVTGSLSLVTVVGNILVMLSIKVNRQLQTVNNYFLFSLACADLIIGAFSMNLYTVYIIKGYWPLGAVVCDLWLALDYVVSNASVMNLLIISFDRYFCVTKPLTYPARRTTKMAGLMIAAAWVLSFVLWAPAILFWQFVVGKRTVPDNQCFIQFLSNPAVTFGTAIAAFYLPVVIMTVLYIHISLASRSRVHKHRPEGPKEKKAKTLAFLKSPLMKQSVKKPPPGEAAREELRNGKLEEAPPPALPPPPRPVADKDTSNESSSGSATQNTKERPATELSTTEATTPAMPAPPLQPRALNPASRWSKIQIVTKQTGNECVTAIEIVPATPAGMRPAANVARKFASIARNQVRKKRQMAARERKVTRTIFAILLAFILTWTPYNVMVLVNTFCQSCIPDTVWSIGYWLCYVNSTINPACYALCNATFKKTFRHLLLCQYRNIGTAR

[6] = biological target: Mitogen-activated protein kinase 14 (Homo sapiens, UniProt Q16539); set-up: species or system Escherichia coli;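 further: inhibition of p38alpha enzyme activity in a biochemical kinase assay, with myelin basic protein serving as substrate; in other assays of this panel Not Active means under 50% inhibition at 10 µM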
Sequence of Mitogen-activated protein kinase 14 (Q16539 whole entry): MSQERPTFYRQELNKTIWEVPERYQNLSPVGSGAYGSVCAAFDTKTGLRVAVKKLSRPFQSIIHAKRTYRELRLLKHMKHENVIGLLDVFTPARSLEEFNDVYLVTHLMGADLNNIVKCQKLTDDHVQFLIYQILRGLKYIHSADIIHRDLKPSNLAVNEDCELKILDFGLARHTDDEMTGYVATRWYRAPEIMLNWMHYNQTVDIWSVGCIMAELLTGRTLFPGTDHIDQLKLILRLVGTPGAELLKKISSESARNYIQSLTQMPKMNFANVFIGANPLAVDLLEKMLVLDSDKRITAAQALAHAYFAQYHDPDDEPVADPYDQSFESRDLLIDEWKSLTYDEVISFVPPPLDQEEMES

SMILES | IC50 ([1]; hek293) | IC50 [2] | Ki [2] | IC50 [3] | Ki [3] | IC50 [4] | IC50 [5] | IC50 [6] | IC50 ([3]; read-out: IC50) | Ki ([3]; read-out: Ki) | IC50 ([6]; read-out: IC50) | IC50 ([1]; read-out: IC50) | Ki ([1]; read-out: Ki)
O=C(c1ccccc1)c1ccc2n1CCC2C(=O)O (stereo not given) [KETOROLAC] | Not Active | Not Active | Not Active | Not Active | Not Active | Not Active | Not Active | Not Active |  |  |  |  | 
CC[C@H](C)[C@@H](CO[C@@H](Cc1ccccc1)C(=O)N[C@@H](CCS(C)(=O)=O)C(=O)OC(C)C)NC[C@@H](N)CS | Not Active | Not Active | Not Active |  |  | Not Active | Not Active | Not Active | 3570 nM | 3170 nM |  |  | 
CN1C(=O)OC(C)(C)C1=O [TRIMETHADIONE] | Not Active | Not Active | Not Active | Not Active | Not Active | Not Active | Not Active | Not Active |  |  |  |  | 
CCC(C)(C)C(=O)O[C@H]1C[C@@H](C)C=C2C=C[C@H](C)[C@H](CC[C@@H]3C[C@@H](O)CC(=O)O3)[C@H]21 [SIMVASTATIN] | Not Active | Not Active | Not Active | Not Active | Not Active | Not Active | Not Active | Not Active |  |  |  |  | 
Cc1ccc(S(=O)(=O)NC(=O)NN2CCCCCC2)cc1 [TOLAZAMIDE] | Not Active | Not Active | Not Active | Not Active | Not Active | Not Active | Not Active | Not Active |  |  |  |  | 
CC(Cl)(Cl)Cl [TRICHLOROETHANE] | Not Active | Not Active | Not Active | Not Active | Not Active | Not Active | Not Active | Not Active |  |  |  |  | 
CC(C)(C)NC[C@H](O)COc1cccc2c1CCCC2=O [LEVOBUNOLOL] | Not Active | Not Active | Not Active | Not Active | Not Active | Not Active | Not Active | Not Active |  |  |  |  | 
CCN1CCCC1CNC(=O)c1cc(S(N)(=O)=O)ccc1OC (stereo not given) [SULPIRIDE] | Not Active | Not Active | Not Active | Not Active | Not Active | Not Active | Not Active | Not Active |  |  |  |  | 
Cc1cccc(C)c1NC(=O)C(C)N (stereo not given) [TOCAINIDE] | Not Active | Not Active | Not Active | Not Active | Not Active | Not Active | Not Active | Not Active |  |  |  |  | 
CCOC(=O)C1=C(C)NC(C)=C(C(=O)OCC)C1c1ccccc1/C=C/C(=O)OC(C)(C)C [LACIDIPINE] | Not Active | Not Active | Not Active |  |  | Not Active | Not Active | Not Active | 5.45 nM | 4.84 nM |  |  | 
C=CCc1ccc2c(c1)OCO2 [SAFROLE] | Not Active | Not Active | Not Active | Not Active | Not Active | Not Active | Not Active | Not Active |  |  |  |  | 
O=C(OC[C@H]1O[C@@H](OC(=O)c2cc(O)c(O)c(OC(=O)c3cc(O)c(O)c(O)c3)c2)[C@H](OC(=O)c2cc(O)c(O)c(OC(=O)c3cc(O)c(O)c(O)c3)c2)[C@@H](OC(=O)c2cc(O)c(O)c(OC(=O)c3cc(O)c(O)c(O)c3)c2)[C@@H]1OC(=O)c1cc(O)c(O)c(OC(=O)c2cc(O)c(O)c(O)c2)c1)c1cc(O)c(O)c(OC(=O)c2cc(O)c(O)c(O)c2)c1 [TANNIC ACID] | Not Active | Not Active | Not Active | Not Active | Not Active | Not Active | Not Active |  |  |  | 375 nM |  | 
CO[C@@]12[C@H](COC(N)=O)C3=C(C(=O)C(C)=C(N)C3=O)N1C[C@@H]1N[C@@H]12 [MITOMYCIN] | Not Active | Not Active | Not Active | Not Active | Not Active | Not Active | Not Active | Not Active |  |  |  |  | 
CN1C[C@H](CNC(=O)OCc2ccccc2)C[C@@H]2c3cccc4c3c(cn4C)C[C@H]21 [METERGOLINE] |  | Not Active | Not Active |  |  | Not Active | Not Active | Not Active | 268 nM | 238 nM |  | 136 nM | 67 nM
Cc1[nH]c(=O)c(C#N)cc1-c1ccncc1 [MILRINONE] | Not Active | Not Active | Not Active | Not Active | Not Active | Not Active | Not Active | Not Active |  |  |  |  | 
O=C1CC[C@@]2(O)[C@H]3Cc4ccc(O)c5c4[C@@]2(CCN3CC2CC2)[C@H]1O5 [NALTREXONE] | Not Active | Not Active | Not Active | Not Active | Not Active | Not Active | Not Active | Not Active |  |  |  |  | 
COC(=O)Nc1nc2ccc(C(=O)c3ccccc3)cc2[nH]1 [MEBENDAZOLE] | Not Active | Not Active | Not Active | Not Active | Not Active | Not Active | Not Active | Not Active |  |  |  |  | 
CC(=O)O[C@]1(C(C)=O)CC[C@H]2[C@@H]3C[C@H](C)C4=CC(=O)CC[C@]4(C)[C@H]3CC[C@@]21C [MEDROXYPROGESTERONE ACETATE] | Not Active | Not Active | Not Active | Not Active | Not Active | Not Active | Not Active | Not Active |  |  |  |  | 
Cc1cn([C@H]2C=C[C@@H](CO)O2)c(=O)[nH]c1=O [STAVUDINE] | Not Active | Not Active | Not Active | Not Active | Not Active | Not Active | Not Active | Not Active |  |  |  |  | 
Cc1cnc(NC(=O)C2=C(O)c3ccccc3S(=O)(=O)N2C)s1 [MELOXICAM] | Not Active | Not Active | Not Active | Not Active | Not Active | Not Active | Not Active | Not Active |  |  |  |  | 
CC(O)C(=O)O (stereo not given) [LACTIC ACID] | Not Active | Not Active | Not Active | Not Active | Not Active | Not Active | Not Active | Not Active |  |  |  |  | 
C1CCN2C[C@@H]3C[C@@H](CN4CCCC[C@@H]34)[C@H]2C1 [SPARTEINE] | Not Active | Not Active | Not Active | Not Active | Not Active | Not Active | Not Active | Not Active |  |  |  |  | 
CC(N)C12CC3CC(CC(C3)C1)C2 (stereo not given) [RIMANTADINE] | Not Active | Not Active | Not Active | Not Active | Not Active | Not Active | Not Active | Not Active |  |  |  |  | 
